Data: article PMC9611758, “Bioactive Platinum(IV) Complexes Incorporating Halogenated Phenylacetates” (Molecules, 2022)
“And” between values parts separate entries of the source, which are not always exact repeats. Identical values can stand only once.

How the values were obtained:
SJ-G2 glioblastoma = experiment: MTT growth inhibition assay, SJ-G2; format: cell-based, human; details: 72 h
BE2-C neuroblastoma = experiment: MTT growth inhibition assay, BE2-C; format: cell-based, human; details: 72 h
H460 lung = experiment: MTT growth inhibition assay, H460; format: cell-based, human; details: 72 h
U87 glioblastoma = experiment: MTT growth inhibition assay, U87; format: cell-based, human; details: 72 h
Du145 prostate = experiment: MTT growth inhibition assay, Du145; format: cell-based, human; details: for GI50: MTT assay, 72 h
A2780 ovarian = experiment: MTT growth inhibition assay, A2780; format: cell-based, human; details: 72 h
[1] = Lipophilicity by HPLC (log kw); format: physicochemical; details: for log kw: chromatographic lipophilicity index, extrapolated to 100% d.i.H2O; for log kw (y-intercept of log k versus [CH3CN] % plot, Figure S80): linear fit
Excerpt: For lipophilicity measurements, HPLC was utilised instead of the traditional shake-flask method, as described previously. Recent studies have also reported the efficiency of HPLC in measuring the lipophilicity of compounds [79, 80]. Each complex was eluted under several isocratic ratios. A standard curve was generated to calculate the log value of the capacity factor (log k) according to Equation (1). Following Equation (2), the percentage of organic solvent (CH3CN) in the mobile phase from each isocratic run was plotted against log kw (Figure S80). Log kw is the chromatographic lipophilicity index or measure of lipophilicity of the complex, so a higher value corresponds to greater lipophilicity. Because the selected axial ligands in this study contain F, Cl, Br, and I, it was only appropriate to determine the influence of the halogens on the overall lipophilicity of the platinum(IV) complexes. […] Conversely, the least lipophilic complex was the phen derivative containing 4-FPA, 3, with a log kw of 0.25. Furthermore, for the phen derivatives, the order of increasing lipophilicity was 3 > 1 > 5 > 7, which corresponds to the order of increasing size of the halogens, F > Cl > Br > I. This pattern was also observed with the 5,6-Me2phen derivatives (4 > 2 > 6 > 8), thereby confirming that the halogens increased the order of lipophilicity accordingly based on their size.
For lipophilicity measurements, analytical HPLC was utilised. Elution profiles were acquired on an Agilent (Melbourne, VIC, Australia) Technologies 1260 Infinity instrument equipped with a Phenomenex Onyx^TM Monolithic C18-reverse phase column (100 × 4.6 mm, 5 µm pore size) (Sydney, NSW, Australia). The mobile phase consisted of solvents, A (0.06% TFA in d.i.H2O) and B (0.06% TFA in CH3CN/d.i.H2O (90:10)). Potassium iodide was used as an external dead volume marker to determine the dead time of the column. Retention times (TR) were measured at varying isocratic ratios ranging from 30 to 36% of solvent B at 1 mL·min^−1 mL. An injection volume of 10 µL was utilised. Capacity factors were determined according to Equation (1):(1) k=(TR−T0)/T0 where k is the capacity factor, TR is the retention time of the analyte, and T0 represents the dead time. A minimum of four different mobile compositions were used for each complex to calculate k. A linear plot was generated of log k against the concentration of CH3CN in the mobile phase to determine the value of log kw expressed by Equation (2):(2) logk=Sφ+logkw where S is the slope, φ is the concentration of the CH3CN in the mobile phase, and log kw represents the capacity factor of the complex in 100% d.i.H2O. Extrapolation of this linear plot to the y-intercept indicates the log kw value.

HT29 colon cells = experiment: ROS detection assay (DCFH-DA); format: cell-based, human; details: HT29 colon cells, treated at GI50 concentration (TBHP positive control 20 μM)
Excerpt: Although ROS is required for cancer cell function and progression, it can induce programmed cell death or apoptosis. […] In this study, we report the ROS activity of the studied platinum(IV) complexes, 1–8, together with the individual axial ligands (4-CPA, 4-FPA, 4-BPA, and 4-IPA) in the human cancer cell line, HT29 colon (Figure 19, Table 8, and Figure S95). The ROS potential of their platinum(II) and platinum(IV) precursors in the same cell line is also presented for comparison purposes (Table 8). […] HT29 colon cells were stained by DCFH-DA and then treated with the complexes at each specific GI50 concentration. Upon ROS production, the DCFH-DA produced dichlorodihydrofluorescein, a fluorescent product. The measured fluorescence was, therefore, proportional to the produced ROS.
To investigate the presence of ROS in treated cells, a DCFDA/H2DCFDA-cellular ROS Assay Kit (Abcam, Cambridge, MA, USA) was used, as previously described. A total of 25,000 cells/mL of HT29 cells in DMEM were seeded in 96-well plates. Cells were washed with 1X kit buffer, and then stained with 25 μM 2′,7′-dichlorofluorescein diacetate (DCFH-DA) and incubated for 45 min. DCFH-DA was then removed, and cells were then re-washed with 1X kit buffer, after which phenol red free media was added. Cells were then treated with a GI50 drug concentration for each complex. The plates were directly scanned to measure fluorescence (relative fluorescence units (RFU)) at different time points using the Glo-Max®-Multimode microplate reader (Promega Corporation, Alexandra, VIC, Australia) at an excitation/emission of 485/535 nm. To generate the positive control (20 μM tert-butyl hydroperoxide (TBHP)), cells were washed with 1X kit buffer, and stained with DCFDA (25 μM) for 45 min; this was removed and TBHP was added in phenol red free media, and the resulting solution was scanned as described above.

[2] = system: ADDP-resistant ovarian variant; experiment: MTT growth inhibition assay, ADDP; format: cell-based, human; details: for GI50: MTT assay, 72 h
MIA pancreas = experiment: MTT growth inhibition assay, MIA; format: cell-based, human; details: 72 h
[3] = system: non-tumour derived MCF10A breast line; experiment: MTT growth inhibition assay, MCF10A; format: cell-based, human; details: 72 h
HT29 colon = experiment: MTT growth inhibition assay, HT29; format: cell-based, human; details: MTT assay, 72 h
A431 skin = experiment: MTT growth inhibition assay, A431; format: cell-based, human; details: 72 h
[4] = Reduction experiments with AsA by 1H-NMR and 1D-195Pt-NMR; format: physicochemical; details: D2O, 37 °C; for T50% (approximate time at which 50% reduction occurs): 10 mM PBS (~7.4 pH), 1H-NMR; for extent of reduction 1 h after the final 1H-NMR experiment (1D-195Pt-NMR): PBS, regions −2800 and 400 ppm
Excerpt: Platinum(IV) complexes are reduced to their platinum(II) precursors by intracellular biological reducing agents such as AsA or GSH in tumour cells. However, the precise mechanism by which reduction occurs is not fully understood. In this paper, reduction reaction experiments were undertaken on the synthesised platinum(IV) complexes, 1–8, with the aid of ^1H-NMR and 1D-^195Pt-NMR spectroscopy. The method used for the reduction reaction experiments was adapted from the literature without modifications. A total of 10 mM PBS (~7.4 pH) was selected as media, and AsA was used as the biological reducing agent to investigate the reduction property of 1–8. Prior to the reduction reaction experiments, a control was prepared where each metal complex was dissolved with PBS in D2O. 1D-^195Pt-NMR was measured within the regions of −2800 and 400 ppm (30 min per region), at 37 °C. This was undertaken to confirm that the PBS would not interfere with the reduction process of the metal complexes. […] The approximate time points for the studied complexes at which an estimated 50% reduction had occurred, in the presence of AsA, as represented by T50%, are summarised in Table 6.
The reduction properties of 1–8 were monitored using ^1H-NMR and 1D-^195Pt-NMR spectroscopy on a 400 MHz Bruker (Melbourne, VIC, Australia) Avance Spectrometer. A sequence of ^1H-NMR experiments was carried out for 1 h at 37 °C, followed by 1D-^195Pt-NMR within the regions of −2800 and 400 ppm. An amount of 10 mM PBS (~7.4 pH) was transferred to a vial and reduced to dryness through rotary evaporation. AsA (~1 mg) was combined with the metal complex (~5 mg) and transferred to the vial containing the dried PBS. A total of 600 µL of D2O was then added to the vial to dissolve the complex, AsA, and the PBS together.

MCF-7 breast = experiment: MTT growth inhibition assay, MCF-7; format: cell-based, human; details: MTT assay, 72 h
panel of cell lines = experiment: MTT growth inhibition assay, whole panel of cell lines; format: cell-based, human; details: average over the cell lines tested, MTT assay, 72 h

SMILES | GI50 (SJ-G2 glioblastoma) [nM] | GI50 (BE2-C neuroblastoma) [nM] | GI50 (H460 lung) [nM] | GI50 (U87 glioblastoma) [nM] | GI50 (Du145 prostate) [nM] | GI50 (A2780 ovarian) [nM] | log kw [1] | log kw (y-intercept of log k versus [CH3CN] % plot, Figure S80) [1] | ROS production 24 h (HT29 colon cells) [RFU] | ROS production 48 h (HT29 colon cells) [RFU] | ROS production 72 h (HT29 colon cells) [RFU] | GI50 [2] [nM] | GI50 (MIA pancreas) [nM] | GI50 [3] [nM] | GI50 (HT29 colon) [nM] | GI50 (A431 skin) [nM] | T50% (approximate time at which 50% reduction occurs) [4] [min] | extent of reduction 1 h after the final 1H-NMR experiment (1D-195Pt-NMR) [4] | GI50 (MCF-7 breast) [nM] | GI50 (panel of cell lines) [nM] | other results
Cc1c(C)c2c3c4c1=CC=C[N]4[Pt+2]([OH])([O]C(=O)Cc1ccc(F)cc1)[N]3C=CC=2.N[C@H]1CCCC[C@@H]1N [Complex 4, [Pt^IV(5,6-Me2phen)(SS-DACH)(4-FPA)(OH)]^2+] | 30 ± 8 | 110 ± 20 | 10 ± 3 | 37 ± 5 | 0.7 ± 0.4 | 20 ± 4 | 0.80 | 0.8042 | 579 ± 18 | 681 ± 17 | 738 ± 15 | 6 ± 2 | 5 ± 2 | 11 ± 3 | 6 ± 2 | 14 ± 2 | 20 to 25 | partial reduction | 23 ± 5 | 23 ± 4 | fold more potent than 56MESS (Du145 prostate; Du145 prostate, ratio of GI50 values): ~7 fold and 6.6 fold; fold more potent than cisplatin [2]: ~4700 fold
N[C@H]1CCCC[C@@H]1N.O=C([O-])Cc1ccc(F)cc1.[OH-].[Pt+4].c1cnc2c(c1)ccc1cccnc12 [Complex 3, [Pt^IV(phen)(SS-DACH)(4-FPA)(OH)]^2+] | 337 ± 60 | 810 ± 200 | 320 ± 30 | 1000 ± 150 | 100 ± 17 | 340 ± 70 | 0.25 | 0.249 | 305 ± 28 | 409 ± 22 | 558 ± 13 | 250 ± 10 | 230 ± 30 | 320 ± 10 | 210 ± 30 | 450 ± 60 | 5 to 10 | complete reduction | 740 ± 60 | 426 ± 60 | 
